In patent US8722673B2, “Imine compounds for combating invertebrate pests” (BASF SE, priority 2008, dated 2014):

Assays:
Format in all cases: in vivo
[1] = system: Acrobat Ant Workers (Crematogaster sp.); experiment: Acrobat ant workers glass vial contact assay; conditions: 100 ppm; 48 h after treatment
Description: (§1) If not otherwise specified, the tests were conducted as glass vial contact assays. Glass vials (20 ml scintillation vials) were used. Treatment solutions were mixed with technical grade chemicals diluted in acetone. Treatment solutions needed for the assays included generally 1 and 10 ppm (0.01 and 0.1 μg/cm^2, respectively), but optionally also 100 and/or 1000 ppm for first tier vials. As commercial standard, alphacypermethrin was run at 1 ppm. As solvent control, acetone was used for the assay. Treatment solution was pipetted into the bottom of each vial. Each vial was turned on its side and placed onto a commercial grade hot dog roller without applying heat. The uncapped vials were allowed to roll to allow for the acetone treatment to vent off. After drying, the vials were placed into the compartmented vial shipping boxes. The workstation was prepared by chilling the table and plastic Petri dishes with the inside wall coated with Fluon. A weigh boat of 10% sugar water saturated cotton dental pellets was also prepared. The animal pests were collected into a tube with a rechargeable insect vacuum. The tube of animal pests was placed in a laboratory refrigerator until the animal pests were incapacitated. The animal pests were emptied into chilled Petri dish. A small cotton dental pellet was soaked in water or in 10 wt % sugar water, whereas the excess solution was gently squeezed out. […]

[2] = system: Brown Dog Tick Adults (Rhipicephalus sanguineus); experiment: Brown dog tick adults glass vial contact assay; conditions: 100 ppm; 3 DAT (days after treatment)
Description: as §1, with “incapacitated.” for “incapacitated. The animal pests were emptied into chilled Petri dish. A small cotton dental pellet was soaked in water or in 10 wt % sugar water, whereas the excess solution was gently squeezed out.”
Treatment solutions were mixed with test compound diluted in acetone at concentrations of 10 and 100 ppm. […] Ticks were evaluated by rolling the vials on a preheated hotdog roller. […]

[3] = system: Western Flower Thrips (Frankliniella occidentalis); experiment: Western flower thrips glass vial and leaf disc test; conditions: 300 ppm; larvae or adults; 2 DAT
Description: Serial dilutions of each technical grade AI were made in pure acetone. 0.5 ml of the treatment solution was deposited into the bottom of a glass vial (scintillation vial). The cap was screwed back onto the vial and inverted for about five seconds. The cap was subsequently removed and the vial laid on its side and rolled constantly, on a hot dog roller, until all the acetone had flashed off and the inner surface of the vial was dry. Cotton leave discs were also dipped simultaneously into the treatment solutions and allowed to dry. After the vials were dried, the leave discs were placed into the vials to serve as a food/water source for the thrips. Each treatment was replicated 5-fold. Western flower thrips were aspirated into the vials, approximately 5 larvae or adults/vial. Following treatment application the vials were held in a holding room under fluorescent light and constant 26° C. Thrips mortality was assessed at 2 DAT (days after treatment), counting all thrips both dead and alive.

Measured: mortality in comparison with untreated controls

Cc1cc(C2=NOC(c3cc(Cl)cc(Cl)c3)(C(F)(F)F)C2)ccc1C=NNC(=O)NCC(F)(F)F (stereo not drawn) [Compound 1-48]
at least 75%: all assays above
